From US7163787B2, “Methods for the identification of antiviral compounds” (Crucell Holland B.V., priority 2001, dated 2007)

What was measured:
HSV-2 [1] = test: TCID50 titration of HSV-2 on PER.C6 with acyclovir, CPE score; format: cell-based, Herpes Simplex Virus type 2
Description: (§1) FIG. 16. Virustatic activity of acyclovir for Herpes Simplex Virus type 1 and type 2 (HSV-1 and HSV-2) using PER.C6 cells as a substrate for virus replication and TCID50 calculations based on CPE score on day 6 post infection.
(§2) To test the feasibility of PER.C6 for antiviral drug screening, the acyclovir/HSV system was used. A TCID50 titration of both a HSV-1 as well as a HSV-2 stock virus produced on PER.C6 (titer 6000 TCID50/ml) was performed in either the absence or in the presence of different concentrations of acyclovir. PER.C6 cells were seeded in a 96-wells tissue culture plate at a concentration of 1×10^5 cells/well, in normal culture medium, DMEM (Gibco) supplemented with heat inactivated FBS (origin US, Gibco) and 1 ml 4.9 M MgCl2 (Sigma). The day after seeding, cells were pre-incubated with the appropriate acyclovir (20 mg/ml, Genthon) concentration being, 200, 20, 2, 0,2 and 0 μg/ml, diluted in normal culture medium, for 2 hours at 37° C. and 10% CO2. A total of 20 wells were used per concentration. […]
(§3) At day 6 post infection, CPE was scored in each of the wells and TCID50 calculated according to the Karber method (1931), which is well known to persons skilled in the art. In addition, viable cells were scored with the MTS assay. […] 10% CO2, followed by reading the OD490 in an ELISA reader.

HSV-1 [2] = test: Viable cell scoring by MTS assay of HSV-1 infected PER.C6 with acyclovir; format: cell-based, Herpes Simplex Virus type 1; details: HSV-1 on PER.C6; day 6 post infection
Description: (§4) FIG. 17. Virustatic effect of acyclovir against (A) HSV-1 and (B) HSV-2 using infection of PER.C6 with different 10 fold serial dilutions of virus and viable cell scoring by MTS assay on day 6 post infection.
as §2, §3

HSV-1 [3] = test: TCID50 titration of HSV-1 on PER.C6 with acyclovir, CPE score; format: cell-based, Herpes Simplex Virus type 1
Description: as §1, §2, §3

HSV = details: A549 cells; cited from earlier work
HSV-2 [4] = test: Viable cell scoring by MTS assay of HSV-2 infected PER.C6 with acyclovir; format: cell-based, Herpes Simplex Virus type 2; details: HSV-2 on PER.C6; day 6 post infection
Description: as §4, §2, §3

HRV14 or HRV16 = details: cited from earlier work

Row | Compound | amount of acyclovir for 1000 fold TCID50 reduction, relative to HSV-1 (HSV-2 [1]; HSV-2 on PER.C6, CPE score day 6 post infection) | virustatic effect (HSV-2 [1]; HSV-2 propagated on PER.C6 cells) | prevention of cell death caused by virus (viable cells, MTS) (HSV-1 [2]) | TCID50 reduction as compared to the control (HSV-1 [3]; HSV-1 on PER.C6, 20 μg/ml of acyclovir, CPE score day 6 post infection) [fold] | virustatic effect (HSV-1 [3]; HSV-1 propagated on PER.C6 cells) | HSV replication (HSV) | viable cells scored with MTS assay compared with TCID50 result (HSV-2 [4]) | cytopathic effect in infected cells (HRV14 or HRV16; cells infected with HRV14 or HRV16) | rhinovirus replication in vitro (HRV14 or HRV16; in vitro)
1 | Nc1nc2c(ncn2COCCO)c(=O)[nH]1 [acyclovir, 2-amino-1,9-dihydro-9-[(2-hydroethoxy)methyl]-6H-purin-6-one] | required a higher amount of acyclovir | clear virustatic effect | more effective at a lower dosage in preventing cell death caused by HSV-1 than by HSV-2 | ~1000 | clear virustatic effect | inhibited HSV replication | comparable results were obtained | – | –
2 | c1ccc2c(c1)oc1ccccc12 [Dibenzofuran] | – | – | – | – | – | – | – | hinder the cytopathic effect | block rhinovirus replication in vitro
